Test results reported in patent publication US9540361B2, “N-substituted azetidine derivatives” (Merck Sharp & Dohme B.V., priority 2010, dated 2017).
Structures can show the parent of a compound that is named as a salt.

What was measured:
MCF-7H cells = assay: 7-day in vitro proliferation assay in tamoxifen-resistant MCF-7H breast cancer cells (methyl-3H-thymidine incorporation); assay type: cell-based, human; conditions: for Efficacy (fractional to E2): fraction of maximal response, E2 = 1.00 per definition; for Efficacy (fractional to E2) / % E2: MCF-7H; for % E2: relative potency to induce proliferation, normalized against E2 (=100 per definition)
Method: To what extent compounds are capable of stimulating proliferation in ER-positive, tamoxifen-resistant breast cancer cells is tested in a 7-day in vitro proliferation assay using MCF-7H cells. More specifically, this in vitro bioassay is used to determine the efficacy (fraction of maximal response), pEC50, and relative potency of the compound to induce proliferation by comparing the data for this compound with those of the reference compound 17β-estradiol (E2) in the same test.
(§1) A more detailed description of the method used is as follows.
Cell culture: The human epithelial breast cancer cell line MCF-7H (origin: Hubrecht Laboratory, Utrecht, The Netherlands) was routinely maintained in complete medium which is a 1:1 mixture of Ham's F12 medium and Dulbecco's Modified Eagle Medium (DMEM; Invitrogen, Carlsbad, USA) without phenol red and enriched with 5% fetal calf serum (FCS; Hyclone, Utah, USA), 100 μg/ml streptomycin and 100 units/ml penicillin adapted to contain:
Cells were grown in 80 cm^2 culture flasks (Nunc, Roskilde, Denmark) and kept in an atmosphere of 5% CO2-95% air at 37 degrees Celsius. Cells were subcultured when they reached about 80-90% confluence, resulting in one passage a week. Subculturing includes detaching the cells using trypsin/EDTA and diluting the cell suspension 10 times.
Methyl-^3H-thymidine incorporation assay: MCF-7H cells were starved overnight in assay medium containing 5% charcoal-treated (CT) bovine calf serum (BCS; Hyclone) instead of FCS and a final concentration of 1.0 μg/ml bovine insulin, the day before plating. Cells were plated in assay medium containing 5% CT BCS, in white 24-wells plates (Perkin Elmer, Shelton, USA), at a density of 7.5×10^3 cells per well, each well containing 630 μL assay medium. Cells were allowed to attach and spread for 24 h before stimulation with reference and/or test compound(s). After a stimulation period of 7 days, 0.25 μCi/well of methyl-^3H-thymidine (GE Healthcare Limited, Buckinghamshire, UK) was added per well. Cultures were maintained in an atmosphere of 5% CO2-95% air at 37 degrees Celsius. After overnight incubation, excess methyl-^3H-thymidine was aspirated and the cells were washed with phosphate-buffered saline (PBS). After 1 h of incubation with 1 ml scintillation fluid Microscint-20 (Perkin Elmer), radioactivity was measured in a Packard TOP-count NXT microplate scintillation counter (Perkin Elmer).

[1] = target: T1, human estrogen receptor α (hERα) (Homo sapiens, UniProt P03372); assay: antagonistic activity in CHO cells co-transfected with hERα, rat oxytocin promoter and luciferase reporter gene; assay type: cell-based; conditions: antagonism of 17β-estradiol-induced transactivation, CHO-hERα-RO-LUC; read-out: ERα pIC50 (converted)
T1 sequence (P03372 1-595): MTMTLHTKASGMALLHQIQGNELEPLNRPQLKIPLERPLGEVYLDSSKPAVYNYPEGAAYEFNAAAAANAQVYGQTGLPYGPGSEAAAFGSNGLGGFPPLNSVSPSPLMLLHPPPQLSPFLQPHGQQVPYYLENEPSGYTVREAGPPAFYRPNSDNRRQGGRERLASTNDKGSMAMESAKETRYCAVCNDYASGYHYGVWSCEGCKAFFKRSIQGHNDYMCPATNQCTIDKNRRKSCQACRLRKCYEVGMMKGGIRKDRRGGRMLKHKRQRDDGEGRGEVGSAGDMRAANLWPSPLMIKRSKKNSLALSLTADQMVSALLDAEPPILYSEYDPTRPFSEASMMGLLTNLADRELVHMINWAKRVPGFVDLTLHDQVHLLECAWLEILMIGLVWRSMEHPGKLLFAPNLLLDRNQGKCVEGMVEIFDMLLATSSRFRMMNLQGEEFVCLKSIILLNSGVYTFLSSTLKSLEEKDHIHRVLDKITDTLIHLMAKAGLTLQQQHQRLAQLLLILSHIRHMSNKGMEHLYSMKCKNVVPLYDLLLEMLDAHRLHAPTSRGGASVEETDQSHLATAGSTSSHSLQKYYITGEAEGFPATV
Method: The antagonistic activity of compounds on the estrogen receptors was determined in an in vitro bioassay with recombinant Chinese Hamster Ovary (CHO) cells stably co-transfected with the human estrogen receptor α (hERα), the rat oxytocin promoter (RO) and the luciferase reporter gene (LUC). […] The antagonistic efficacy, i.e. the amount of maximal inhibition of the 17β-estradiol activated receptor by a compound, is expressed as fraction relative to the maximal inhibition as induced by the standard anti-estrogen ICI 164,384 (efficacy test compound=(maximal inhibition test compound/maximal inhibition ICI 164,384)). A more detailed description of the methodology can be found in De Gooyer et al., Steroids, 68 (2003) 21-30.

estrogen receptor alpha = target: T2, estrogen receptor alpha (Homo sapiens, UniProt P03372); assay: ERα downregulation assay in T47D breast cancer cells (ERα ELISA); assay type: cell-based; conditions: downregulation of ERα relative to fulvestrant (100%), 1E-5 M, 24 hours, negative = upregulation
T2 construct: endogenous in cells; host or cells: T47D human breast cancer cells (ATCC)
T2 sequence (P03372 1-595): T1 sequence (P03372 1-595)
From the text: More specifically, this in vitro bioassay is used to determine the efficacy (fraction of maximal response) of the compound by comparing the data for this compound with those of the reference compound ICI 182,780 (fulvestrant) in the same test (downregulation of fulvestrant is 100% by definition).
as §1
Cell culture. The human epithelial breast cancer cell line T47D (origin: ATCC) was routinely maintained in a 1:1 mixture of Ham's F12 medium and Dulbecco's Modified Eagle Medium (Gibco) enriched with 5% fetal calf serum (Hyclone), 10 mM HEPES pH 7.5 and 100 μg/ml penicillin-streptomycin solution. Cells were grown in 80 cm2 culture flasks (Nunc, Roskilde, Denmark) and kept in an atmosphere of 5% CO2-95% air at 37 degrees Celsius. Cells were subcultured when they reached about 80-90% confluence, resulting in one passage a week. Subculturing includes detaching the cells using Cell Dissociation Buffer [Sigma] and subsequent inoculation at 1:5 or 1:10 in a new Roux flask (175 cc) and\or plating out in Nunclon™ Surface 96 wells microplates. The culture medium needs to be refreshed on day three or four of the incubation, if applicable.
Determination of ERα protein levels: T47D cells in the microplates are incubated with 1E-5 M test compound for 24 hours. The supernatant in all wells is carefully aspirated. Cells are lysed on the microplate and cell lysates are probed for ERα content using an ERα ELISA assay kit (Active Motif).

Row | Structure (SMILES) | Efficacy (fractional to E2) (MCF-7H cells) | % E2 (MCF-7H cells) | induce proliferation of MCF-7H breast cancer cells (MCF-7H cells; potency range and efficacy in words) | IC50 [1] | DR (%) (estrogen receptor alpha)
1 | CC/C(=C(\c1ccc(O)cc1)c1ccc(OCCN(C)C)cc1)c1ccccc1 [4OHT, 4-OH-tamoxifen] | 0.49 | 2.3% | – | – | –
2 | O=C(c1ccc(OCCN2CCCCC2)cc1)c1c(-c2ccc(O)cc2)sc2cc(O)ccc12 [Raloxifene] | 0.33 | 21.1% | – | – | –
3 | C#C[C@]1(O)CC[C@H]2[C@@H]3CCc4cc(O)ccc4[C@H]3CC[C@@]21C [EE, Ethynyl Estradiol] | 0.99 | 137% | in the picomolar range and with full efficacy | – | –
4 | CC/C(=C(\c1ccccc1)c1ccc(OCCN(C)C)cc1)c1ccccc1 [Tamoxifen] | 0.58 | 0.008% | – | – | –
5 | CCCN1CC(Oc2ccc(C(=O)c3c(-c4ccccc4)sc4cc(O)ccc34)cc2)C1.Cl [compound 7e, (6-hydroxy-2-phenylbenzo[b]thiophen-3-yl)(4-(1-propylazetidin-3-yloxy)-phenyl)methanone hydrochloride] | – | – | – | 2 nM | 96%
6 | CCCN1CC(Oc2ccc([C@H]3c4ccc(O)cc4OC(C)(C)[C@@H]3c3ccccc3)cc2)C1.O=C(O)C(F)(F)F [compound 6p, (3S,4S)-2,2-dimethyl-3-phenyl-4-(4-(1-propylazetidin-3-yloxy)phenyl)chroman-7-ol 2,2,2-trifluoroacetate] | – | – | – | 3.98 nM | 58%
7 | CCCN1CC(Oc2ccc(C(=O)c3c(-c4cc(F)cc(F)c4)sc4cc(O)ccc34)cc2)C1.Cl [compound 7t, (2-(3,5-difluorophenyl)-6-hydroxybenzo[b]thiophen-3-yl)(4-(1-propylazetidin-3-yloxy)phenyl)methanone hydrochloride] | – | – | – | 2 nM | 98%
8 | CCCN1CC(Oc2ccc(C(=O)c3c(-c4ccccc4Cl)noc3-c3ccccc3)cc2)C1 [compound 7ao, (3-(2-chlorophenyl)-5-phenyl)isoxazol-4-yl)(4-(1-propylazetidin-3-yloxy)-phenyl)methanone hydrochloride] | – | – | – | 25.1 nM | 80%
9 | CCCN1CC(Oc2ccc(C(=O)c3c(-c4ccc(O)c(C)c4)sc4cc(O)ccc34)cc2)C1.Cl [compound 7r, (6-hydroxy-2-(4-hydroxy-3-methylphenyl)benzo[b]thiophen-3-yl)(4-(1-propylazetidin-3-yloxy)phenyl)methanone hydrochloride] | – | – | – | 2 nM | 94%
10 | CCCN1CC(Oc2ccc(-c3c(-c4snnc4C)noc3-c3ccc(O)cc3)cc2)C1.Cl [compound 7ae, 4-(3-(4-methyl-1,2,3-thiadiazol-5-yl)-4-(4-(1-propylazetidin-3-yloxy)phenyl)isoxazol-5-yl)phenol hydrochloride] | – | – | – | 12.6 nM | 99%
11 | CCCN1CC(Oc2ccc(C(=O)c3c(-c4cccc(O)c4)noc3-c3ccccc3F)cc2)C1.Cl [compound 7ba, (5-(2-fluorophenyl)-3-(3-hydroxyphenyl)isoxazol-4-yl)(4-(1-propylazetidin-3-yloxy)phenyl)methanone hydrochloride] | – | – | – | 15.8 nM | 51%
12 | CCCN1CC(Oc2ccc(C(=O)c3c(-c4ccccc4Cl)noc3-c3cc[nH]c3)cc2)C1.O=C(O)C(F)(F)F [compound 7aq, (3-(2-chlorophenyl)-5-(1H-pyrrol-3-yl)isoxazol-4-yl)(4-(1-propylazetidin-3-yl-oxy)phenyl)methanone 2,2,2-trifluoroacetate] | – | – | – | 25.1 nM | 78%
13 | CCCN1CC(Oc2ccc(-c3c(-c4c(C)cccc4Cl)noc3-c3ccc(O)cc3)cc2)C1.O=C(O)C(F)(F)F [compound 7ab, 4-(3-(2-chloro-6-methylphenyl)-4-(4-(1-propylazetidin-3-yloxy)phenyl)isoxazol-5-yl)phenol 2,2,2-trifluoroacetate] | – | – | – | 0.398 nM | 86%
14 | C=CCN1CC(Oc2ccc(-c3c(-c4ccc(O)cc4)sc4cc(O)ccc34)cc2)C1.O=C(O)C(F)(F)F [compound 7b, 3-(4-(1-allylazetidin-3-yloxy)phenyl)-2-(4-hydroxyphenyl)benzo[b]thiophen-6-ol 2,2,2-trifluoroacetate] | – | – | – | 0.631 nM | 68%
15 | CCCN1CC(Oc2ccc(C(=O)c3c(-c4cccs4)sc4cc(O)ccc34)cc2)C1.Cl [compound 7f, (6-hydroxy-2-(thiophen-2-yl)benzo[b]thiophen-3-yl)(4-(1-propylazetidin-3-yl-oxy)phenyl)methanone hydrochloride] | – | – | – | 2.51 nM | 88%
16 | CCCN1CC(Oc2ccc(C(=C(Cl)c3ccccc3)c3ccccc3)cc2)C1 (mixture of isomers) [compound 6x, (E/Z)-3-(4-(2-chloro-1,2-diphenylvinyl)phenoxy)-1-propylazetidine 2,2,2-trifluoroacetate] | – | – | – | 7.94 nM | 63%
17 | CCCN1CC(Oc2ccc(C(=O)c3c(-c4ccc(F)c(C)c4)sc4cc(O)ccc34)cc2)C1.Cl [compound 7s, (2-(4-fluoro-3-methylphenyl)-6-hydroxybenzo[b]thiophen-3-yl)(4-(1-propylazetidin-3-yloxy)phenyl)methanone hydrochloride] | – | – | – | 5.01 nM | 101%
18 | CCCN1CC(Oc2ccc(C(=O)c3c(-c4ccc(O)cc4)sc4cc(O)ccc34)cc2F)C1.Cl [compound 7u, (3-fluoro-4-(1-propylazetidin-3-yloxy)phenyl)(6-hydroxy-2-(4-hydroxyphenyl)-benzo[b]thiophen-3-yl)methanone hydrochloride] | – | – | – | 0.794 nM | 78%
